Results as given in the supplement of paper PMC10307832.

What was measured:
Experiment in all cases: relative viability (nuclei count vs DMSO), 5 days (fraction); higher = more cells survive
NCI-H2347 = test system: NCI-H2347
Procedure, shortened: (§1)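 Nuclei were stained with Hoechst during a one-step fixation (final 0.05% Triton X-100, 1% formaldehyde, 1 ug/ml Hoechst) carried out 5 days after dosing, then counted on 4× images. The cells, lung cancer lines in 1536-well plates, had been dosed by pin tool the day after seeding with one drug alone or a fixed anchor-drug dose plus five library-drug doses (not always all listed) in √10 steps. Relative viability is the nuclei count in treated wells divided by that in vehicle wells, and each value is the median of duplicate plates.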

COR-L23 = test system: COR-L23
Procedure, shortened: as §1

HOP-62 = test system: HOP-62
Procedure, shortened: as §1

NCI-H1993 = test system: NCI-H1993
Procedure, shortened: as §1

NCI-H647 = test system: NCI-H647
Procedure, shortened: as §1

SK-MES-1 = test system: SK-MES-1
Procedure, shortened: as §1

NCI-H1792 = test system: NCI-H1792
Procedure, shortened: as §1

NCI-H522 = test system: NCI-H522
Procedure, shortened: as §1

NCI-H1734 = test system: NCI-H1734
Procedure, shortened: as §1

COR-L 105 = test system: COR-L 105
Procedure, shortened: as §1

NCI-H2228 = test system: NCI-H2228
Procedure, shortened: as §1

UMC-11 = test system: UMC-11
Procedure, shortened: as §1

NCI-H1395 = test system: NCI-H1395
Procedure, shortened: as §1

HARA = test system: HARA
Procedure, shortened: as §1

NCI-H1755 = test system: NCI-H1755
Procedure, shortened: as §1

NCI-H838 = test system: NCI-H838
Procedure, shortened: as §1

NCI-H1793 = test system: NCI-H1793
Procedure, shortened: as §1

NCI-H2170 = test system: NCI-H2170
Procedure, shortened: as §1

NCI-H358 = test system: NCI-H358
Procedure, shortened: as §1

HCC-15 = test system: HCC-15
Procedure, shortened: as §1

NCI-H2009 = test system: NCI-H2009
Procedure, shortened: as §1

NCI-H1355 = test system: NCI-H1355
Procedure, shortened: as §1

CCN(CC)CCCCNc1ncc2cc(-c3cc(OC)cc(OC)c3)c(NC(=O)NC(C)(C)C)nc2n1 + N=C(N)NC(=N)NCCc1ccccc1 [Phenformin] (partner 250 µM)
relative viability (NCI-H2347; first compound 0.01 µM): 0.381
relative viability (NCI-H2347; first compound 0.03162 µM): 0.24
relative viability (NCI-H2347; first compound 0.1 µM): 0.278
relative viability (NCI-H2347; first compound 0.3162 µM): 0.505
relative viability (NCI-H2347; first compound 1 µM): 0.379
relative viability (COR-L23; first compound 0.01 µM): 0.433
relative viability (COR-L23; first compound 0.03162 µM): 0.444
relative viability (COR-L23; first compound 0.1 µM): 0.511
relative viability (COR-L23; first compound 0.3162 µM): 0.517
relative viability (COR-L23; first compound 1 µM): 0.362
relative viability (HOP-62; first compound 0.01 µM): 0.81
relative viability (HOP-62; first compound 0.03162 µM): 0.847
relative viability (HOP-62; first compound 0.1 µM): 0.604
relative viability (HOP-62; first compound 0.3162 µM): 0.752
relative viability (HOP-62; first compound 1 µM): 0.654
relative viability (NCI-H1993; first compound 0.01 µM): 0.501
relative viability (NCI-H1993; first compound 0.03162 µM): 0.512
relative viability (NCI-H1993; first compound 0.1 µM): 0.554
relative viability (NCI-H1993; first compound 0.3162 µM): 0.492
relative viability (NCI-H1993; first compound 1 µM): 0.514
relative viability (NCI-H647; first compound 0.01 µM): 0.451
relative viability (NCI-H647; first compound 0.03162 µM): 0.59
relative viability (NCI-H647; first compound 0.1 µM): 0.556
relative viability (NCI-H647; first compound 0.3162 µM): 0.804
relative viability (NCI-H647; first compound 1 µM): 0.239
relative viability (SK-MES-1; first compound 0.01 µM): 0.706
relative viability (SK-MES-1; first compound 0.03162 µM): 0.673
relative viability (SK-MES-1; first compound 0.1 µM): 0.637
relative viability (SK-MES-1; first compound 0.3162 µM): 0.641
relative viability (SK-MES-1; first compound 1 µM): 0.483
relative viability (NCI-H1792; first compound 0.01 µM): 0.363
relative viability (NCI-H1792; first compound 0.03162 µM): 0.43
relative viability (NCI-H1792; first compound 0.1 µM): 0.312
relative viability (NCI-H1792; first compound 0.3162 µM): 0.232
relative viability (NCI-H1792; first compound 1 µM): 0.168
relative viability (NCI-H522; first compound 0.01 µM): 0.726
relative viability (NCI-H522; first compound 0.03162 µM): 0.768
relative viability (NCI-H522; first compound 0.1 µM): 0.582
relative viability (NCI-H522; first compound 0.3162 µM): 0.688
relative viability (NCI-H522; first compound 1 µM): 0.633
relative viability (NCI-H1734; first compound 0.01 µM): 0.356
relative viability (NCI-H1734; first compound 0.03162 µM): 0.363
relative viability (NCI-H1734; first compound 0.1 µM): 0.384
relative viability (NCI-H1734; first compound 0.3162 µM): 0.364
relative viability (NCI-H1734; first compound 1 µM): 0.354
relative viability (COR-L 105; first compound 0.01 µM): 0.476
relative viability (COR-L 105; first compound 0.03162 µM): 0.521
relative viability (COR-L 105; first compound 0.1 µM): 0.47
relative viability (COR-L 105; first compound 0.3162 µM): 0.615
relative viability (COR-L 105; first compound 1 µM): 0.421
relative viability (NCI-H2228; first compound 0.01 µM): 0.341
relative viability (NCI-H2228; first compound 0.03162 µM): 0.336
relative viability (NCI-H2228; first compound 0.1 µM): 0.384
relative viability (NCI-H2228; first compound 0.3162 µM): 0.346
relative viability (NCI-H2228; first compound 1 µM): 0.304
relative viability (UMC-11; first compound 0.01 µM): 0.346
relative viability (UMC-11; first compound 0.03162 µM): 0.353
relative viability (UMC-11; first compound 0.1 µM): 0.371
relative viability (UMC-11; first compound 0.3162 µM): 0.343
relative viability (UMC-11; first compound 1 µM): 0.362
relative viability (NCI-H1395; first compound 0.01 µM): 0.426
relative viability (NCI-H1395; first compound 0.03162 µM): 0.455
relative viability (NCI-H1395; first compound 0.1 µM): 0.451
relative viability (NCI-H1395; first compound 0.3162 µM): 0.431
relative viability (NCI-H1395; first compound 1 µM): 0.397
relative viability (HARA; first compound 0.01 µM): 0.49
relative viability (HARA; first compound 0.03162 µM): 0.504
relative viability (HARA; first compound 0.1 µM): 0.489
relative viability (HARA; first compound 0.3162 µM): 0.395
relative viability (HARA; first compound 1 µM): 0.364
relative viability (NCI-H1755; first compound 0.01 µM): 0.634
relative viability (NCI-H1755; first compound 0.03162 µM): 0.649
relative viability (NCI-H1755; first compound 0.1 µM): 0.677
relative viability (NCI-H1755; first compound 0.3162 µM): 0.675
relative viability (NCI-H1755; first compound 1 µM): 0.585
relative viability (NCI-H838; first compound 0.01 µM): 0.498
relative viability (NCI-H838; first compound 0.03162 µM): 0.562
relative viability (NCI-H838; first compound 0.1 µM): 0.597
relative viability (NCI-H838; first compound 0.3162 µM): 0.538
relative viability (NCI-H838; first compound 1 µM): 0.291
relative viability (NCI-H1793; first compound 0.01 µM): 0.416
relative viability (NCI-H1793; first compound 0.03162 µM): 0.427
relative viability (NCI-H1793; first compound 0.1 µM): 0.353
relative viability (NCI-H1793; first compound 0.3162 µM): 0.341
relative viability (NCI-H1793; first compound 1 µM): 0.335
relative viability (NCI-H2170; first compound 0.01 µM): 0.417
relative viability (NCI-H2170; first compound 0.03162 µM): 0.416
relative viability (NCI-H2170; first compound 0.1 µM): 0.414
relative viability (NCI-H2170; first compound 0.3162 µM): 0.413
relative viability (NCI-H2170; first compound 1 µM): 0.345
relative viability (NCI-H358; first compound 0.01 µM): 0.358
relative viability (NCI-H358; first compound 0.03162 µM): 0.302
relative viability (NCI-H358; first compound 0.1 µM): 0.358
relative viability (NCI-H358; first compound 0.3162 µM): 0.472
relative viability (NCI-H358; first compound 1 µM): 0.331
relative viability (HCC-15; first compound 0.01 µM): 0.466
relative viability (HCC-15; first compound 0.03162 µM): 0.535
relative viability (HCC-15; first compound 0.1 µM): 0.526
relative viability (HCC-15; first compound 0.3162 µM): 0.484
relative viability (HCC-15; first compound 1 µM): 0.424
relative viability (NCI-H2009; first compound 0.01 µM): 0.471
relative viability (NCI-H2009; first compound 0.03162 µM): 0.462
relative viability (NCI-H2009; first compound 0.1 µM): 0.451
relative viability (NCI-H2009; first compound 0.3162 µM): 0.456
relative viability (NCI-H2009; first compound 1 µM): 0.357
relative viability (NCI-H1355; first compound 0.01 µM): 0.446
relative viability (NCI-H1355; first compound 0.03162 µM): 0.443
relative viability (NCI-H1355; first compound 0.1 µM): 0.468
relative viability (NCI-H1355; first compound 0.3162 µM): 0.501
relative viability (NCI-H1355; first compound 1 µM): 0.413
